This passage reports IC50 results from patent publication US10183950B2, “Thienopyrimidine inhibitors of atypical protein kinase C” (Cancer Research Technology Limited, priority 2011, dated 2019).

The structures appear in SMILES notation.

For one test, the target named is T1, full-length human PKCι (Homo sapiens, UniProt P41743).
T1 construct: Recombinant, full-length human PKCι expressed in Sf21 insect cells is also commercially available; purchased; host or cells: Sf21 insect cells
T1 sequence (P41743 1-596): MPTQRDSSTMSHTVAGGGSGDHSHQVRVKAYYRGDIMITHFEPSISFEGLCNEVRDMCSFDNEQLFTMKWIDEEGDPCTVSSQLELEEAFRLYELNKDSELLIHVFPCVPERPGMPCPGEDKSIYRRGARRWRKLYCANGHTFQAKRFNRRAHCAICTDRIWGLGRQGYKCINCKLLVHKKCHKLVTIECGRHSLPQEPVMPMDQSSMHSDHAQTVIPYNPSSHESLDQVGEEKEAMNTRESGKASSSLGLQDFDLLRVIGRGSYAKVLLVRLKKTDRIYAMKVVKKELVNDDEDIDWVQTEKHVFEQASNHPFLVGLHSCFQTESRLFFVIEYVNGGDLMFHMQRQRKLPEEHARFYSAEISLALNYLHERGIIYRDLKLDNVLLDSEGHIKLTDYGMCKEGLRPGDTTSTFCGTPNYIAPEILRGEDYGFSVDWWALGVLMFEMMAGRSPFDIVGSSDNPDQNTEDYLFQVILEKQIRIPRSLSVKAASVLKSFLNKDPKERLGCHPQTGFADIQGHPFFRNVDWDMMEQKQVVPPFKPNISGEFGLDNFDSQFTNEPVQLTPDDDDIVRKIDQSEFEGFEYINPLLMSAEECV
Nature of the test: PKCι IC50 IMAP fluorescence polarisation assay, full-length enzyme. It counts as biochemical. The settings on record: full length PKCi at 15 μM ATP; read-out: IC50 in IMAP assay against full length PKCi.
For the compound `Cc1[nH]ncc1-c1nc(NC[C@@H](N)Cc2ccccc2)c2sccc2n1` [compound 634, (S)-N*1*-[2-(5-Methyl-1H-pyrazol-4-yl)-thieno[3,2-d]pyrimidin-4-yl]-3-phenyl-propane-1,2-diamine], the IC50 was 1000 to 10000 nM.

The next test concerns the target T2, kinase-domain human PKCι (Homo sapiens, UniProt P41743).
T2 construct: Recombinant, kinase-domain human PKCι is expressed and purified in-house; made in house
T2 sequence (P41743 254-522 limits assumed): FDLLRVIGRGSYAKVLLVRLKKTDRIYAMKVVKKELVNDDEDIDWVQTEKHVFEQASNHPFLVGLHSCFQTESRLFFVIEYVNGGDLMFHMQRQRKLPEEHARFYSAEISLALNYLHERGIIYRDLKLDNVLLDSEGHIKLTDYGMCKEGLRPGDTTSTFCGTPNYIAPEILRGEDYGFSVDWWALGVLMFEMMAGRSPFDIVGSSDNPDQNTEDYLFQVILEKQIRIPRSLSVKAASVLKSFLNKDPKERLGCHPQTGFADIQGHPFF
The test can be described thus: PKCι IC50 IMAP fluorescence polarisation assay, kinase-domain enzyme. It counts as biochemical. The settings on record: kinase domain PKCi at 2 μM ATP; read-out: IC50 in IMAP assay against kinase domain PKCi (Activity). The procedure:
Assays are based on the ability of PKCι to phosphorylate a commercially available peptide substrate in vitro. […] Recombinant, full-length human PKCι expressed in Sf21 insect cells is also commercially available. Recombinant, kinase-domain human PKCι is expressed and purified in-house.
The procedure below explains how dose response curves for inhibitors of PKCι are obtained.
Compounds to be tested are dissolved in 100% DMSO. […] 1 μl is plated into 384 well black low-binding flat bottomed assay plates which are used immediately. Dilutions and additions of compound to assay plates are carried out using Matrix WellMate® and Matrix PlateMate® Plus liquid handling systems.
The final concentration of peptide substrate in the assay is 100 nM. […] Relevant controls are included, namely no compound and no enzyme. […] The reaction is allowed to incubate for 60 minutes at room temperature, before the reaction is stopped and developed by the addition of 20 μl IMAP™ development reagent (Molecular Devices). IMAP development reagent consists of 0.25% (v/v) IMAP progressive binding reagent, 17% (v/v) IMAP progressive binding buffer A and 3% (v/v) IMAP progressive binding buffer B. The plates are then incubated for 2 hours at room temperature before being read using an appropriate plate reader, for example a Molecular Devices HT Analyst or a BMG Pherastar.
As for `CN(C)CCNc1nc(-c2ccncc2)nc2sc3c(c12)CCCC3` [compound 1, N,N-dimethyl-N′-(2-pyridin-4-yl-5,6,7,8-tetrahydro-benzo[4,5]thieno[2,3-d]pyrimidin-4-yl)-ethane-1,2-diamine], the IC50 was in the range of 1000 to 10000 nM.
As for `C[C@@H](N)CNc1nc(-c2ccncc2)nc2sc3c(c12)CCCC3` [compound 2, (R)-N*1*-(2-Pyridin-4-yl-5,6,7,8-tetrahydro-benzo[4,5]thieno[2,3-d]pyrimidin-4-yl)-propane-1,2-diamine], the IC50 was 100 to 1000 nM.
On the same count and under the same terms, to `CN1CCCN(c2nc(-c3ccncc3)nc3sc4c(c23)CCCC4)CC1` [compound 4, 4-(4-Methyl-[1,4]diazepan-1-yl)-2-pyridin-4-yl-5,6,7,8-tetrahydro-benzo[4,5]thieno[2,3-d]pyrimidine] belongs 100 to 1000 nM; to `C[C@H](N)CNc1nc(-c2ccncc2)nc2sc3c(c12)CCCC3` [compound 5, (S)-N*1*-(2-Pyridin-4-yl-5,6,7,8-tetrahydro-benzo[4,5]thieno[2,3-d]pyrimidin-4-yl)-propane-1,2-diamine], below 100 nM; to `CSCC[C@@H](N)CNc1nc(-c2ccncc2)nc2sc3c(c12)CCCC3` [compound 6, (R)-4-Methylsulfanyl-N*1*- (2-pyridin-4-yl-5,6,7,8-tetrahydro-benzo[4,5]thieno[2,3-d]pyrimidin-4-yl)-butane-1,2-diamine], 1000 to 10000 nM.
On the same count and under the same terms, to `N[C@@H](CNc1nc(-c2ccncc2)nc2sc3c(c12)CCCC3)Cc1c[nH]c2ccccc12` [compound 7, (R)-3-(1H-Indol-3-yl)-N*1*- (2-pyridin-4-yl-5,6,7,8-tetrahydro-benzo[4,5]thieno[2,3-d]pyrimidin-4-yl)-propane-1,2-diamine] belongs 1000 to 10000 nM; to `C[C@H]1CN(c2nc(-c3ccncc3)nc3sc4c(c23)CCCC4)CCN1` [compound 8, 4-((S)-3-Methyl-piperazin-1-yl)-2-pyridin-4-yl-5,6,7,8-tetrahydro-benzo[4,5]thieno[2,3-d]pyrimidine], 100 to 1000 nM; to `C[C@@H]1CN(c2nc(-c3ccncc3)nc3sc4c(c23)CCCC4)C[C@H](C)N1` [compound 9, 4-((3R,5S)-3,5-Dimethyl-piperazin-1-yl)-2-pyridin-4-yl-5,6,7,8-tetrahydro-benzo[4,5]thieno[2,3-d]pyrimidine], 1000 to 10000 nM.
The same measure, in the same setting: for `C[C@@H]1CN[C@@H](C)CN1c1nc(-c2ccncc2)nc2sc3c(c12)CCCC3` [compound 10, 4-((2R,5S)-2,5-Dimethyl-piperazin-1-yl)-2-pyridin-4-yl-5,6,7,8-tetrahydro-benzo[4,5]thieno[2,3-d]pyrimidine] the value was 1000 to 10000 nM; for `N[C@H]1C[C@@H]1Nc1nc(-c2ccncc2)nc2sc3c(c12)CCCC3` [compound 11, (1S,2S)-N-(2-Pyridin-4-yl-5,6,7,8-tetrahydro-benzo[4,5]thieno[2,3-d]pyrimidin-4-yl)-cyclopropane-1,2-diamine], 10000 to 40000 nM.
As for `CNCCNc1nc(-c2ccncc2)nc2sc3c(c12)CCCC3` [compound 13, N-Methyl-N′-(2-pyridin-4-yl-5,6,7,8-tetrahydro-benzo[4,5]thieno[2,3-d]pyrimidin-4-yl)-ethane-1,2-diamine], the half-inhibitory concentration (IC50) was in the range of 100 to 1000 nM.
Same read-out and setting: for `c1cc(-c2nc(N3CCCNCC3)c3c4c(sc3n2)CCCC4)ccn1` [compound 14, 4-[1,4]Diazepan-1-yl-2-pyridin-4-yl-5,6,7,8-tetrahydro-benzo[4,5]thieno[2,3-d]pyrimidine] the value was 100 to 1000 nM; for `CN(CCN)c1nc(-c2ccncc2)nc2sc3c(c12)CCCC3` [compound 15, N*1*-Methyl-N*1*-(2-pyridin-4-yl-5,6,7,8-tetrahydro-benzo[4,5]thieno[2,3-d]pyrimidin-4-yl)-ethane-1,2-diamine], 100 to 1000 nM.
